How the values were obtained:
Format in all cases: cell-based, human
CD34+ cells [1] = assay: FACS immunophenotyping of cultured/re-selected CD34+ cells for stem/early progenitor cells
Description: Immunophenotyping—For immuno-phenotyping, cells were harvested, washed with phosphate buffered saline (PBS), containing 1% BSA and 0.1% sodium azide, and stained by incubation (at 4° C. for 60 min) with phycoerythrin (PE)-conjugated anti CD38 (Immunoquality Products, The Netherlands), flourescein isothiocyanate (FITC)-conjugated anti CD34 (Miltenyi Biotec) both at 5 μl per 50 μl cell suspension. The cells were then washed with the same buffer and analyzed, using FACS-calibur flow cytometer (Becton-Dickinson, Immunofluorometry systems, Mountain View, Calif.). Cells were passed at a rate of about 1000 cells/second, using saline as the sheath fluid. A 488 nm argon laser beam served as the light source for excitation. Emission of ten thousand cells was measured using logarithmic amplification and calculated using the cellQuest software. Background noise was determined using isotype control stained cells. Arithmetic Mean Fluorescence Channel (MFC) of the negative and positive populations and the stained cells to noise (S/N) ratio were calculated.
The highly purified, re-selected CD34+ cell fraction from a three week culture was FACS analyzed for stem/early progenitor cells: CD34+CD38− (FIG. 3), CD34+Lin−(CD3, 4, 19, 38, 33, 14 and 15 minus, FIG. 4) as well as for the percentages of CD38-HLA-DR minus cells (FIG. 5). […] For example, at 5 uM nicotinamide the percentages of CD34+Lin− cells were 4.11 whereas in control cultures only 0.02%, the percentages of CD34+CD38− cells were 34.6 in nicotinamide cultures and only 0.67 in control.
The CD34+CD38− cells are shown in the upper left part of the plot. FIG. 6b, the cells were stained with CD34(PE) and Lin(38, 33, 4, 3, 15, 14, 19, 61) (FITC). The CD34+Lin− cells are shown in the upper left part of the plot. FIG. 6c, the cells were stained for 34PE and HLA-DR and CD38 FITC. The CD34+/CD38− HLA-DR− cells are shown in the upper left part of the plot.

CD34+ cells [2] = assay: Two phase culture system: long-term expansion of CD34+ cell cultures (3-week treatment phase, then cytokines only); conditions: 200 mM Splitomicin for first 3 weeks
Description: Two phase culture system—Purified CD34+ cells were cultured in culture bags (American Fluoroseal Co. Gaithersburg, Md., USA) at a concentration of 1×10^4 cells/ml in MEMα/10% FCS containing the following human recombinant cytokines: Thrombopoietin (TPO), interleukin-6 (IL-6), FLT-3 ligand and stem cell factor (SCF), each at a final concentration of 50 ng/ml (Perpo Tech, Inc., Rocky Hill, N.J., USA), with or without Nicotinamide or Sirtinol or Splitomicin and incubated at 37° C. in a humidified atmosphere of 5% CO2 in air. Until week 3, the cultures were topped weekly with the same volume of fresh medium, Nicotinamide or Sirtinol or Splitomicin and growth factors. From week three and up to the termination of the experiments the cultures were weekly demi-depopulated and supplemented with cytokines only. Cells were counted following staining with trypan blue. At various time points, harvested cells were used to assay the content of colony forming units in culture (CFUc), enumeration of CD34+ cells following re-selection and immunophenotype analysis. Cell morphology was determined on cytospin (Shandon). […] On week 5 cells were enumerated, numbers of CFUc were determined and CD34+ cells were re-isolated from 10 ml cultures, counted and accumulative numbers per culture were calculated.

CD34+ cells [3] = assay: Assay for Colony Forming Units (CFUc) in semi-solid medium; conditions: 200 mM Splitomicin for first 3 weeks; week 5; colonies scored after 14 days
Description: Assay for Colony Forming Units (CFU)—Cells were cloned in semi-solid, methylcellulose-containing medium supplemented with 2 IU/mL erythropoietin (Eprex, Cilag AG Int., Switzerland), stem cell factor and IL-3, both at 20 ng/mL, G-CSF and GM-CSF, both at 10 ng/mL (all from Perpo Tech). Cultures were incubated for 14 days at 37° C. in humidified atmosphere of 5% CO2 in air.
Cell culturing—Cell culturing was effected was described above. Specifically, cultures were initiated with a total of 1.2×10^5 CD34+ cells in cytokine-supplemented medium, with or without (control) […] Splitomicin. From week 3 and on all cultures were supplemented with cytokines only. On week 5 cells were enumerated, numbers of CFUc were determined and CD34+ cells were re-isolated from 10 ml cultures, counted and accumulative numbers per culture were calculated.

CD34+ cells [4] = assay: Ex vivo expansion of CD34+ cell cultures, three weeks, CD34+ cells re-selected and enumerated; conditions: 5 μM nicotine amide; cytokines SCF, TPO, FLt3, IL-6, IL-3; only cytokine treated cultures 35×10^4
Description: Sample collection and purification—Cells were obtained from umbilical cord blood (CB) after a normal full-term delivery (informed consent was given). Samples were collected and processed within 12 hours postpartum. Blood was mixed with 3% Gelatin (Sigma, St. Louis, Mo.) and let sedimented for 30 minutes to remove most red blood cells (RBC). The leukocyte-rich fraction was harvested and layered on Ficoll-Hypaque gradient (1.077 g/mL; Sigma), and centrifuged at 400 g for 30 minutes. […]
Purification of CDD133+ and CD34+ cells—To purify CDD133+ or CD34^+ cells, the mononuclear cell fraction was subjected to two cycles of immuno-magnetic separation using the “MiniMACS or Clinimax CD34 progenitor cell isolation kit” (Miltenyi Biotec, Aubun, Calif.) following the manufacturer's recommendations. The purity of the CD34^+ population obtained ranged from 95% to 98% as evaluated by flow cytometry (see below). […]
At weekly intervals, cell cultures were semi-depopulated and supplemented with fresh medium, serum and cytokines. At various time points, cells were harvested, counted following staining with trypan blue, and cell morphology was determined on cytospin (Shandon, UK)-prepared smears stained with May-Grunwald/Giemsa solutions. […]

SMILES	CD34+/CD38− population shift in FACS dot plot (CD34+ cells [1]; 75 mM splitomicin)	increase in CD34+ cells (CD34+ cells [2]; CD34+ cells re-isolated on week 5)	total cell expansion vs cytokine-only control (CD34+ cells [2]; counted on week 5)	colony formation (CFU analysis), self-renewal potential (CD34+ cells [3])	CD34+ cells re-selected after three week expansion (CD34+ cells [4])	percentages of CD34+CD38− cells in re-selected CD34+ fraction (CD34+ cells [1]; 5 uM nicotinamide, three week culture, control 0.67) [%]	percentages of CD34+Lin− cells in re-selected CD34+ fraction (CD34+ cells [1]; 5 uM nicotinamide, three week culture, control cultures 0.02%) [%]
O=C1CCc2c(ccc3ccccc23)O1 [Splitomicin]	remarkable up-left shift	about 30%	more than 2 fold	increase in colony formation	–	–	–
NC(=O)c1cccnc1 [Nicotinamide, nicotinamide]	–	–	–	–	180×10^4	34.6	4.11
